Blank lines part the entries; values can stand above or below the molecule they belong to.
Tests used:
trypsin [1] = target: T1, trypsin (Bos taurus, UniProt P00760); assay: Trypsin inhibition kinetics, substrate Nα-benzoyl-L-arginine p-nitroanilide; format: biochemical
T1 sequence (P00760 24-246): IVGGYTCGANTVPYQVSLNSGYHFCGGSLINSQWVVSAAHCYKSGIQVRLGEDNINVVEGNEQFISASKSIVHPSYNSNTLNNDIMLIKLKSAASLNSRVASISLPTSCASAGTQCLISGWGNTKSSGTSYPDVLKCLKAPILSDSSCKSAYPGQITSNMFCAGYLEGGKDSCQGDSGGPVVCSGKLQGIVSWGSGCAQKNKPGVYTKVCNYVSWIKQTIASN

trypsin [2] = target: T1, trypsin; assay: Elution of bound trypsin from affinity polymer during ultrafiltration; conditions: for elution of bound trypsin from polymer 5:1 by eluting solution: 500 mM arginine with 10 mM Ca++ in Tris pH 8, 2M KCl with 10 mM Ca++ in pH 8 Tris, 10 mM m-aminobenzamidine, data not shown
Description: Investigation was next conducted on the eluting characteristics of four agents (FIG. 1).
Tests were also performed to determine whether the elution of trypsin with arginine was affected by the acrylamide:monomer ratio and the polymer concentration.

trypsin [3] = target: T1, trypsin; conditions: with respect to substrate benzoyl-L-arginine p-nitroanilide; literature; cited from earlier work
trypsin [4] = conditions: Adamski-Medda et al, 1981; cited from earlier work
chymotrypsin = conditions: Adamski-Medda et al, 1981; cited from earlier work
trypsin [5] = target: T1, trypsin; assay: Trypsin storage stability with/without affinity polymer (trypsin activity); format: physicochemical; conditions: without affinity polymer
Description: Trypsin can be adsorbed by the affinity polymer and stored until this enzyme is required for use or further processing. […] Without the affinity polymer, the trypsin retained only half of its activity at 25° C. after three days even though this solution was stabilized by adding an appropriate amount of calcium. It was further shown that at 4° C. without the affinity polymer trypsin retained approximately 70% of its original activity after 10 days.

inhibitor strength among ortho, meta, para aminobenzamidine (trypsin [1]; position of amino group compared): strongest inhibitor | elution of bound trypsin from polymer 5:1 by eluting solution (trypsin [2]): eluted easily
Molecule: N=C(N)c1cccc(N)c1 [m-aminobenzamidine]
trypsin inhibition kinetics (mechanism) (trypsin [3]): competitive manner

elution of bound trypsin from polymer 5:1 by eluting solution (trypsin [2]): eluted easily
Molecule: [Cl-].[K+] [KCl]

Molecule: dextran-p-aminobenzamidine
trypsin in the filtrate in presence of macroligand (trypsin [4]): 24% | chymotrypsin in the filtrate in presence of macroligand (chymotrypsin): 65%

Molecule: N=C(N)NCCC[C@H](N)C(=O)O [arginine, L-arginine]
Ki (trypsin [1]): 41 ± 3 mM | mechanism of trypsin inhibition (trypsin [1]; with respect to substrate Nα-benzoyl-L-arginine p-nitroanilide, data not shown): competitive inhibitor | elution of bound trypsin from polymer 5:1 by eluting solution (trypsin [2]): eluted easily | eluting characteristics of agents (FIG. 1) (trypsin [2]; polymer 5:1 at 0.75% containing 300 mg trypsin, four agents compared): most effective eluting agent

B1: trypsin (protein, UniProt P00760 24-246, looked up)
Serine protease 1: IVGGYTCGANTVPYQVSLNSGYHFCGGSLINSQWVVSAAHCYKSGIQVRLGEDNINVVEGNEQFISASKSIVHPSYNSNTLNNDIMLIKLKSAASLNSRVASISLPTSCASAGTQCLISGWGNTKSSGTSYPDVLKCLKAPILSDSSCKSAYPGQITSNMFCAGYLEGGKDSCQGDSGGPVVCSGKLQGIVSWGSGCAQKNKPGVYTKVCNYVSWIKQTIASN
original trypsin activity retained (trypsin [5]; 4° C., 10 days): approximately 70% | trypsin activity retained (trypsin [5]; 25° C., three days, calcium added): half

Reference: patent publication US4973554A, “Affinity process for trypsin purification and stabilization” (National Research Council of Canada, priority 1987, dated 1990)
